According to ChEMBL document CHEMBL1144685, “Naphthamides as novel and potent vascular endothelial growth factor receptor tyrosine kinase inhibitors: design, synthesis, and evaluation” (J Med Chem, 2008):

Key:
[1] = Half life in mouse at 3 mg/kg, iv; format: ADME, organism-based; set-up: dose 3 mg/kg, route intravenous; details: in vivo
[2] = Volume of distribution at steady state in cynomolgus monkey at 1 mg/kg, iv; format: ADME, organism-based, Macaca fascicularis; set-up: dose 1 mg/kg, route intravenous; details: in vivo, read-out: Vdss
[3] = Mean retention time in cynomolgus monkey at 1 mg/kg, iv; format: ADME, organism-based, Macaca fascicularis; set-up: dose 1 mg/kg, route intravenous; details: in vivo
[4] = Mean retention time in mouse at 3 mg/kg, iv; format: ADME, organism-based; set-up: dose 3 mg/kg, route intravenous; details: in vivo
[5] = Mean retention time in dog at 1 mg/kg, iv; format: ADME, organism-based, Canis lupus familiaris; set-up: dose 1 mg/kg, route intravenous; details: in vivo
[6] = Oral bioavailability in dog at 10 mg/kg; format: ADME, organism-based, Canis lupus familiaris; details: in vivo
[7] = Volume of distribution at steady state in dog at 1 mg/kg, iv; format: ADME, organism-based, Canis lupus familiaris; set-up: dose 1 mg/kg, route intravenous; details: in vivo, read-out: Vdss
[8] = Half life in cynomolgus monkey at 1 mg/kg, iv; format: ADME, organism-based, Macaca fascicularis; set-up: dose 1 mg/kg, route intravenous; details: in vivo
[9] = Oral bioavailability in cynomolgus monkey at 10 mg/kg, po; format: ADME, organism-based, Macaca fascicularis; details: in vivo
[10] = Half life in dog at 1 mg/kg, iv; format: ADME, organism-based, Canis lupus familiaris; set-up: dose 1 mg/kg, route intravenous; details: in vivo
[11] = Clearance in dog at 1 mg/kg, iv; format: ADME, organism-based, Canis lupus familiaris; set-up: dose 1 mg/kg, route intravenous; details: in vivo
[12] = Volume of distribution at steady state in mouse at 3 mg/kg, iv; format: ADME, organism-based; set-up: dose 3 mg/kg, route intravenous; details: in vivo, read-out: Vdss
[13] = Oral bioavailability in mouse at 10 mg/kg, po; format: ADME, organism-based; details: in vivo
[14] = Clearance in cynomolgus monkey at 1 mg/kg, iv; format: ADME, organism-based, Macaca fascicularis; set-up: dose 1 mg/kg, route intravenous; details: in vivo
[15] = Clearance in mouse at 3 mg/kg, iv; format: ADME, organism-based; set-up: dose 3 mg/kg, route intravenous; details: in vivo
[16] = Inhibition of Erk phosphorylation in human A375 cells; format: cell-based; details: A-375
Liver microsomes = assay: Metabolic stability assessed as covalent binding in human liver microsomes; format: ADME, Microsome
[17] = Clearance in Sprague-Dawley rat at 2 mg/kg, iv; format: ADME, organism-based; set-up: dose 2 mg/kg, route intravenous; details: in vivo
[18] = molecular target: Tyrosine-protein kinase Lck (Homo sapiens, UniProt P06239)
Tyrosine-protein kinase Lck, sequence (P06239 whole entry): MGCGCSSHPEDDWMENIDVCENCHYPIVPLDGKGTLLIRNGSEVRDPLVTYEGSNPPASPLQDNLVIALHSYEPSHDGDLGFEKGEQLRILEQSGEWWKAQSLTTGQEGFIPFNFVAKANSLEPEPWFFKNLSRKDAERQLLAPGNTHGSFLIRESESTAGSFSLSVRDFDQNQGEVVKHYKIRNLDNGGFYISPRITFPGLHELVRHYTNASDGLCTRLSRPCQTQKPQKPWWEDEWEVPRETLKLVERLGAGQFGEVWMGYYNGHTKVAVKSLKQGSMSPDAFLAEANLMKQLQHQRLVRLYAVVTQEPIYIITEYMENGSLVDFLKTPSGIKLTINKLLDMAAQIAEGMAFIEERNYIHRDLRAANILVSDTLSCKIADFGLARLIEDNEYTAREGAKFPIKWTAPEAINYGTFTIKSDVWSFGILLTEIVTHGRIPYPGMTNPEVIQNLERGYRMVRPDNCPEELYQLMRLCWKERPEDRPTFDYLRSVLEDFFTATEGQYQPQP

[19] = AUC (0 to 24 hrs) in human HT29 cell xenografted CD1 nu/nu mouse at 10 mg/kg, po; format: ADME, organism-based, HT-29; set-up: time < 24 hr, dose 10 mg/kg, route oral; details: in vivo
[20] = molecular target: Fibroblast growth factor receptor 2 (Homo sapiens, UniProt P21802); assay: Inhibition of FGFR2
Fibroblast growth factor receptor 2, sequence (P21802 whole entry): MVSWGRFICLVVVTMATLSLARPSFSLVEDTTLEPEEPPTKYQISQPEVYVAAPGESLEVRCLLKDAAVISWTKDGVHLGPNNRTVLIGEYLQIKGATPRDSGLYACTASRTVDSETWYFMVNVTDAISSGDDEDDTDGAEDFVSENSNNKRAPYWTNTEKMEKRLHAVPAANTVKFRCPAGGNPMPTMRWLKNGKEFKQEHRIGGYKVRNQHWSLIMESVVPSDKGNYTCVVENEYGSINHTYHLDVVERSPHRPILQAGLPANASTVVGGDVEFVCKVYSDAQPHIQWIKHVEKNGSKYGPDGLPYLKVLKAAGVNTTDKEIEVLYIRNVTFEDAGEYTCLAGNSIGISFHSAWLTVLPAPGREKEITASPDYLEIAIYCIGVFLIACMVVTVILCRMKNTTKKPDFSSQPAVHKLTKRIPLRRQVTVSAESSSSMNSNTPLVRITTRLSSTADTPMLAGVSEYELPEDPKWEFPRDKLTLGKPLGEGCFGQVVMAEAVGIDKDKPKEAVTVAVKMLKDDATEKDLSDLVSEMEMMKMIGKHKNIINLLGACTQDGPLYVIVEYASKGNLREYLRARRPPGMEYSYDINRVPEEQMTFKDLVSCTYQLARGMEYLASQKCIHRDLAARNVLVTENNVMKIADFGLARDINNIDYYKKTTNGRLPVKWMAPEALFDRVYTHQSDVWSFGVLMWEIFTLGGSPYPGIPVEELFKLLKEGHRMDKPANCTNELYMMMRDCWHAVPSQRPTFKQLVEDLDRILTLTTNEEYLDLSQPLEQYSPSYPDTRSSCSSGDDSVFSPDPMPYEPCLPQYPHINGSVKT

NHDF = assay: Inhibition of PDGF-induced proliferation of NHDF cells; format: functional, cell-based; details: Homo sapiens
[21] = Oral bioavailability in Sprague-Dawley rat at 5 mg/kg; format: ADME, organism-based; details: in vivo
NIH3T3 = assay: Inhibition of CSF1-induced proliferation of BALB/c mouse 3T3 cells; format: functional, cell-based
Cytochrome P450 3A4 = Cytochrome P450 3A4 (Homo sapiens, UniProt P08684)
Cytochrome P450 3A4, sequence (P08684 whole entry): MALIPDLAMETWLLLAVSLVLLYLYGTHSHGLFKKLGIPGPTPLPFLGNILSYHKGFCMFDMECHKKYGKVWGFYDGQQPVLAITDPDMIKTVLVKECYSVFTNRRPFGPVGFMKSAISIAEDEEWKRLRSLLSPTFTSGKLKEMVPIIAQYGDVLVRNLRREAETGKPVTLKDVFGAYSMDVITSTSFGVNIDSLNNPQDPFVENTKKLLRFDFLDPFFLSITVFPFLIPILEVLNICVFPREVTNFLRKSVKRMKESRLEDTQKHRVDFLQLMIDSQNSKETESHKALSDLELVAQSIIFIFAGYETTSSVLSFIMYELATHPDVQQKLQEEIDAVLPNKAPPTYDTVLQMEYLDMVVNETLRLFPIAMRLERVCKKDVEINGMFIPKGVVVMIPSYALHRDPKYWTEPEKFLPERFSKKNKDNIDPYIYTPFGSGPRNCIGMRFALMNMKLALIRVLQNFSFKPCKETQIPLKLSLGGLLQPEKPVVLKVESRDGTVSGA

Plasma [22] = assay: Plasma concentration in BALB/c mouse at 3 mg/kg, po; format: ADME, organism-based; set-up: dose 3 mg/kg, route oral; details: in vivo
Mus musculus = assay: Antitumor activity against human HT29 cell xenografted CD1 nu/nu mouse assessed as inhibition of tumor growth at 3 mg/kg, po; format: functional; details: CD1, HT-29
[23] = Inhibition of histone H3 phosphorylation in human HeLa cells; format: cell-based
Plasma [24] = assay: Plasma concentration in BALB/c mouse at 30 mg/kg, po; format: ADME, organism-based; set-up: dose 30 mg/kg, route oral; details: in vivo
Plasma [25] = assay: Plasma concentration in CD1 nu/nu mouse at 100 mg/kg, po; format: ADME, organism-based; set-up: dose 100 mg/kg, route oral; details: in vivo
[26] = molecular target: Serine/threonine-protein kinase B-raf (Homo sapiens, UniProt P15056, V600E); assay: Inhibition of b-Raf V600E
Serine/threonine-protein kinase B-raf, sequence (P15056 2-766 V600E limits assumed): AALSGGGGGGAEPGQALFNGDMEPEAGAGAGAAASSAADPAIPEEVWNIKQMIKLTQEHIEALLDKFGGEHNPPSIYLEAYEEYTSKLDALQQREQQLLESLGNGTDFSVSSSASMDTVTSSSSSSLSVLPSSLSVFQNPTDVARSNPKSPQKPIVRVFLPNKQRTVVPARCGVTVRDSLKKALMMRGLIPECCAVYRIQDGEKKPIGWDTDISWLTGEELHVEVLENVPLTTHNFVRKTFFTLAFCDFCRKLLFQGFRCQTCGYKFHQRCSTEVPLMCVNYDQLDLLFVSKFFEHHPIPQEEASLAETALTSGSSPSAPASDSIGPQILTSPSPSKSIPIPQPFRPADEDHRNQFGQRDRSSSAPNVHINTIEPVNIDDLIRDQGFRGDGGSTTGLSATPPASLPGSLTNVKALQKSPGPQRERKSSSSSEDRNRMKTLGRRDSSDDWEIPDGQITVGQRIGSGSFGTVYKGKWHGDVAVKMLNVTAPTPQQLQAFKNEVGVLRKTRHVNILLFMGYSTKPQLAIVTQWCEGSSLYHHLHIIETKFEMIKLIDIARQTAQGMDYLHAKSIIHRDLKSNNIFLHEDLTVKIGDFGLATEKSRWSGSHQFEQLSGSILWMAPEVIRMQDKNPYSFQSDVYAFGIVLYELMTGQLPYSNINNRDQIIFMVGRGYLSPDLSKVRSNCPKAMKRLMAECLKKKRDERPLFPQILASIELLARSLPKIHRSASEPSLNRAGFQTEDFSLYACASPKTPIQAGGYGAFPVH

[27] = Volume of distribution at steady state in Sprague-Dawley rat at 2 mg/kg, iv; format: ADME, organism-based; set-up: dose 2 mg/kg, route intravenous; details: in vivo, read-out: Vdss
HUVEC [28] = assay: Inhibition of FGF-induced proliferation of HUVEC cells; format: functional, cell-based; details: Homo sapiens
[29] = Intrinsic clearance in rat liver microsomes; format: ADME, Microsome
[30] = molecular target: Vascular endothelial growth factor receptor 1 (Homo sapiens, UniProt P17948)
Aurora kinase B = Aurora kinase B (Homo sapiens, UniProt Q96GD4); assay: Inhibition of Aurora B
Aurora kinase B, sequence (Q96GD4 whole entry): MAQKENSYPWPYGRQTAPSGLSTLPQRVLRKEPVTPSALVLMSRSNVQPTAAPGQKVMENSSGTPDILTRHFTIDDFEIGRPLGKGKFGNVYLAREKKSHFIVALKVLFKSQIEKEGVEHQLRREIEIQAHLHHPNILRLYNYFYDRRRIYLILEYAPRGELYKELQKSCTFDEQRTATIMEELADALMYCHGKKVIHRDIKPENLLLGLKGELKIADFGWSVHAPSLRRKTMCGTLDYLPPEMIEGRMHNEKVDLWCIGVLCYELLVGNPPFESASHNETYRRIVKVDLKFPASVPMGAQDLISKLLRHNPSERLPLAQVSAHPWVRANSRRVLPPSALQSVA

[31] = Protein binding in rat plasma; format: ADME, cell-free; details: read-out: PPB (converted)
[32] = Cmax in Sprague-Dawley rat at 5 mg/kg, po; format: ADME, organism-based; set-up: dose 5 mg/kg, route oral; details: in vivo
[33] = Protein binding in dog plasma; format: ADME, cell-free, Canis lupus familiaris; details: read-out: PPB (converted)
[34] = Cmax in VEGF soaked disk implanted Sprague-Dawley rat; format: ADME, organism-based; details: in vivo
Plasma [35] = assay: Plasma concentration in CD1 nu/nu mouse at 30 mg/kg, po; format: ADME, organism-based; set-up: dose 30 mg/kg, route oral; details: in vivo
[36] = AUC (0 to 24 hrs) in human HT29 cell xenografted CD1 nu/nu mouse at 3 mg/kg, po; format: ADME, organism-based, HT-29; set-up: time < 24 hr, dose 3 mg/kg, route oral; details: in vivo
HUVEC [37] = assay: cells; details: Homo sapiens
Description: Inhibition of bFGF-induced proliferation of HUVEC cells

[38] = Intrinsic clearance in human liver microsomes; format: ADME, Microsome
[39] = Protein binding in mouse plasma; format: ADME, cell-free; details: read-out: PPB (converted)
[40] = AUC in VEGF soaked disk implanted Sprague-Dawley rat; format: ADME, organism-based; details: plasma
Cytochrome P450 2D6 = Cytochrome P450 2D6 (Homo sapiens, UniProt P10635)
Cytochrome P450 2D6, sequence (P10635 whole entry): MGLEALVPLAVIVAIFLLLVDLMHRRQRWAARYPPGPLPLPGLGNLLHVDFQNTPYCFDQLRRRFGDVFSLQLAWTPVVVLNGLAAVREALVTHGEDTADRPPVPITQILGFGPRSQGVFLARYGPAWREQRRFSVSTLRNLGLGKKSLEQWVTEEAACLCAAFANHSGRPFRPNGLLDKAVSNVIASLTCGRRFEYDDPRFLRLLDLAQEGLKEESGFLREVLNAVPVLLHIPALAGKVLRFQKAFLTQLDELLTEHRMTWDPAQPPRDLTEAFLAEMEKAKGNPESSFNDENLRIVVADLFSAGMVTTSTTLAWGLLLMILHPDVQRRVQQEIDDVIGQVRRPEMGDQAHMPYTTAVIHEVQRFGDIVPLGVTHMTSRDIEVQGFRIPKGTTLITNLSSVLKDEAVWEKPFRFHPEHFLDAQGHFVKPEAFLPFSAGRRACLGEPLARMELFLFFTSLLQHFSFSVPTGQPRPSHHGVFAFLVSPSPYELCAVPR

[41] = molecular target: Macrophage colony-stimulating factor 1 receptor (Homo sapiens, UniProt P07333); assay: Inhibition of c-FMS
[42] = AUC (0 to 24 hrs) in Sprague-Dawley rat at 5 mg/kg, po; format: ADME, organism-based; set-up: time < 24 hr, dose 5 mg/kg, route oral; details: plasma
Plasma [43] = assay: Plasma concentration in BALB/c mouse at 10 mg/kg, po; format: ADME, organism-based; set-up: dose 10 mg/kg, route oral; details: in vivo
Rattus norvegicus = assay: Inhibition of VEGF-induced angiogenesis in VEGF soaked disk implanted Sprague-Dawley rat cornea assessed as number of blood vessels intersecting the midpoint between the disk and limbus after 7 days; format: functional; details: 168 h
[44] = Cmax in human HT29 cell xenografted CD1 nu/nu mouse at 10 mg/kg, po; format: ADME, organism-based, HT-29; set-up: dose 10 mg/kg, route oral; details: in vivo
[45] = Mean retention time in Sprague-Dawley rat at 2 mg/kg, iv; format: ADME, organism-based; set-up: dose 2 mg/kg, route intravenous; details: in vivo
[46] = Half life in Sprague-Dawley rat at 2 mg/kg, iv; format: ADME, organism-based; set-up: dose 2 mg/kg, route intravenous; details: in vivo
[47] = Cmax in human HT29 cell xenografted CD1 nu/nu mouse at 3 mg/kg, po; format: ADME, organism-based, HT-29; set-up: dose 3 mg/kg, route oral; details: in vivo
[48] = molecular target: Vascular endothelial growth factor receptor 3 (Homo sapiens, UniProt P35916)
Vascular endothelial growth factor receptor 3, sequence (P35916 whole entry): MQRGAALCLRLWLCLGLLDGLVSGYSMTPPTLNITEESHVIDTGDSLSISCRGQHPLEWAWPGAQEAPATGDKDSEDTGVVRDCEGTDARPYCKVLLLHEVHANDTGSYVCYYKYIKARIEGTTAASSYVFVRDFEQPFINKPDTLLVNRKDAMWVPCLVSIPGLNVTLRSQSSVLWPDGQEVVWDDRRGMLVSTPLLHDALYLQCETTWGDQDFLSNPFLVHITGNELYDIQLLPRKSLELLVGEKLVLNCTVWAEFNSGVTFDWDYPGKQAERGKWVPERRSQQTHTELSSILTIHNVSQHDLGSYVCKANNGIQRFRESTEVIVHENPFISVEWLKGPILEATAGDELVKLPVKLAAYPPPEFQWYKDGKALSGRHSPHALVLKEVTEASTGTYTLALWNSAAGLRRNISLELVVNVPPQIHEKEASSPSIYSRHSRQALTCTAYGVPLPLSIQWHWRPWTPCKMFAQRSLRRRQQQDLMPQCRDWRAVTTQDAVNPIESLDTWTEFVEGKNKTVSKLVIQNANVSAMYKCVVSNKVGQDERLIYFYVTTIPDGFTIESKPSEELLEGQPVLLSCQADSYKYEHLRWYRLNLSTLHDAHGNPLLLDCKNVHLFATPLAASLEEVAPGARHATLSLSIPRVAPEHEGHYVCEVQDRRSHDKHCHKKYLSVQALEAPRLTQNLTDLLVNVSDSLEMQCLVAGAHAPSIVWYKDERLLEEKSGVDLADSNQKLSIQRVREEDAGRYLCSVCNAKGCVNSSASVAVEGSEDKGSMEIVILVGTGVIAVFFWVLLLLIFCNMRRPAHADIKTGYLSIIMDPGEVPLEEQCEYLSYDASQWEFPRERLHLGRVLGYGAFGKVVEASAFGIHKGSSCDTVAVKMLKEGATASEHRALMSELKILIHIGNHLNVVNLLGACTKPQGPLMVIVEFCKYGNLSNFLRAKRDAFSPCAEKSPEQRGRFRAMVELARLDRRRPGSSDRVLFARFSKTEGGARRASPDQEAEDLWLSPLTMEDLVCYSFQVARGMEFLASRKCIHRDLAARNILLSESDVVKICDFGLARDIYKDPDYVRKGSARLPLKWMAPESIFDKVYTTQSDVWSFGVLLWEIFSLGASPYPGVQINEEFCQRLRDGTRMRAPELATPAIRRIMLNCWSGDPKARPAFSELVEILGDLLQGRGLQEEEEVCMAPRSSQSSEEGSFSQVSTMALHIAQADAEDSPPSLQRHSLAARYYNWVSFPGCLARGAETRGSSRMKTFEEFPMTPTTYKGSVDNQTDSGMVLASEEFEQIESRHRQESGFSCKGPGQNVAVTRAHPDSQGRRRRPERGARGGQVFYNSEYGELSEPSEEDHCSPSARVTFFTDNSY

[49] = Inhibition of anti-CD3-induced proliferation of human T cells; format: functional, cell-based; details: T-cell
[50] = Cmax in human HT29 cell xenografted CD1 nu/nu mouse at 30 mg/kg, po; format: ADME, organism-based, HT-29; set-up: dose 30 mg/kg, route oral; details: in vivo
[51] = AUC (0 to 24 hrs) in human HT29 cell xenografted CD1 nu/nu mouse at 30 mg/kg, po; format: ADME, organism-based, HT-29; set-up: time < 24 hr, dose 30 mg/kg, route oral; details: in vivo

COc1cc2nccc(Oc3ccc4c(C(=O)Nc5ccc(Cl)cc5)cccc4c3)c2cc1OC.CS(=O)(=O)O
half-life [1]: 17 h
Vd [2]: 4.3 L/kg
MRT [3]: 22 h
MRT [4]: 23 h
MRT [5]: 66 h
bioavailability [6]: 72%
Vd [7]: 6.7 L/kg
half-life [8]: 56 h
bioavailability [9]: 62%
half-life [10]: 48 h
clearance [11]: 1.67 mL/min/kg
Vd [12]: 4.8 L/kg
bioavailability [13]: 24%
clearance [14]: 3.33 mL/min/kg
clearance [15]: 3.33 mL/min/kg

COc1cc2nccc(Oc3ccc4c(C(=O)Nc5ccc(Cl)cc5)cccc4c3)c2cc1OC
IC50 [16]: > 1000 nM
Stability (Liver microsomes): < 100 pM/mg/h
clearance [17]: 3.33 mL/min/kg
IC50 [18]: 38 nM
AUC(0-t) at 24 h [19]: 24.1 µM·h
IC50 [20]: > 20000 nM
IC50 (NHDF): 25 nM
bioavailability [21]: 21%
IC50 (NIH3T3): 25 nM
IC50 (Cytochrome P450 3A4): > 50000 nM
concentration (Plasma [22]): 160 nM
inhibition in vivo at 3 mg/kg (Mus musculus): 74%
IC50 [23]: 1100 nM
concentration (Plasma [24]): 1500 nM
concentration (Plasma [25]): 10300 nM
IC50 [26]: 40 nM
Vd [27]: 7.3 L/kg
IC50 (HUVEC [28]): > 1140 nM
microsomal CLint [29]: 50 µL/min/mg
IC50 [30]: 0.5 nM
IC50 (Aurora kinase B): > 1000 nM
fraction unbound [31]: 0.02
Cmax [32]: 420 ng/mL
fraction unbound [33]: 0.026
Cmax [34]: 200 nM
concentration (Plasma [35]): 4000 nM
AUC(0-t) at 24 h [36]: 6.2 µM·h
IC50 (HUVEC [37]): > 1100 nM
microsomal CLint [38]: 30 µL/min/mg
fraction unbound [39]: 0.014
AUC [40]: 1.3 µM·h
IC50 (Cytochrome P450 2D6): > 50000 nM
IC50 [41]: 20 nM
AUC(0-t) at 24 h [42]: 5250 ng·h/mL
concentration (Plasma [43]): 490 nM
ED50 (Rattus norvegicus): 0.1 mg/kg
Cmax [44]: 2200 nM
MRT [45]: 31 h
half-life [46]: 24 h
Cmax [47]: 500 nM
IC50 [48]: 2 nM
IC50 [49]: > 20000 nM
Cmax [50]: 3900 nM
AUC(0-t) at 24 h [51]: 48.4 µM·h
